Laboratory results published in patent US20240336595A1, “BIFUNCTIONAL COMPOUNDS FOR DEGRADING BTK WITH DIMINISHED IMID ACTIVITY” (NURIX THERAPEUTICS, INC., priority 2021, published 2024).
“Also recorded” adds a separate entry of the source.

How the values were obtained:
[1] = system: well-established arthritis; test: Mouse model of well-established arthritis, clinical arthritis score; assay type: in vivo, male DBA/1 mice
[2] = system: Experimental autoimmune encephalomyelitis (EAE); test: Experimental autoimmune encephalomyelitis (EAE) model; assay type: in vivo, C57BL/6 mice
Description: EAE was induced in C57BL/6 mice by immunization with an emulsion of MOG1-125 in complete Freund's adjuvant (CFA), followed by administration of pertussis toxin in PBS, first on the day of immunization (Day 0) and then again the following day (Day 1).
Dosing of all mice started on Day −1 and continued through Day 22. Fingolimod (FTY720, Gilenya) is the a commonly used positive control in this model.
Statistical significance was determined between vehicle control and treated groups based on the end clinical scores using Wilcoxon's non-parametric test.
Statistical analysis: Demyelination (anti-MBP) with Wilcoxon's non-parametric test; inflammatory foci or apoptosis with two-tailed Student's t-test.

[3] = system: plasma cell generation; test: Plasma cell generation upon NP-KLH immunization; assay type: in vivo, Mice
Description: Mice were immunized by intraperitoneal injection of 200 μL of immunogen containing 100 μg NP-32-KLH (Biosearch Technologies, Cat. N-5060-25,Lot. 156285-01) and 1% Alum (Alhydrogel, 2%, Invivogen Cat. Vac-alu-250, Batch 0001715532, Exp. July 2022), prepared in phosphate buffered saline. Group 1 mice were not immunized and used as control. Mice in Group 2 to 5 were dosed orally once a day from Day 1 to Day 7 with compounds or vehicle for six additional days and then sacrificed the following day. Splenocytes and bone marrow were harvested 24 hours following the final dosing of compound on Day 7. Spleens harvested at the end of the study were dissociated, and red blood cells were lysed with ammonium-chloride-potassium (ACK) lysis buffer. 1 million cells per tissue were stained for each flow cytometry panel.
Splenocytes were stained for lineage markers with fluorophore-conjugated antibodies and for NP hapten reactivity with NP-conjugated to phycoerythrin (NP-PE). Live single lymphocytes were gated for B cells (CD19+B220+) and then gated for IgD+ and IgD− B cells. IgD− B cells were then gated for germinal center B cells (Fas+GL-7+), and germinal center B cells were gated for NP+ cells on the basis of staining with NP-PE.
(§1) An ordinary one-way ANOVA with Tukey's multiple comparisons test was performed, and all groups were compared to each other. * p<0.05, ** p<0.01,**** p<0.001. All comparisons without an asterisk were not significant.

[4] = system: MRL/lpr model; test: MRL/lpr lupus model; assay type: in vivo, MRL/lpr mice
Description: Dexamethasone was used as positive control.
Statistical significance was determined between vehicle control and treated groups by ANOVA with Dunnett's post-hoc analysis.
Glomeruli size is a quantitative measure that correlates well with the histopathological grade and severity of nephritis in this model. Statistical significance was determined between vehicle control and treated groups by ANOVA with Dunnett's post-hoc analysis (glomerulus diameter) or with a Kruskal-Wallis test with Dunn's post-hoc analysis (summed scores). * p<0.05, ** p<0.01, *** p<0.001**** p<0.0001.

[5] = Exposure in cerebrospinal fluid after a single oral dose; assay type: in vivo, Male C57BL/6 mice; details: mouse, single oral dose 300 mg/kg
Description: Male C57BL/6 mice were administered Compound 1 orally at 300 mg/kg and 4, 8, or 24 hours after dosing CSF and plasma was collected from three mice per time point. The concentration of Compound 1 in CSF and plasma was determined by LC/MS/MS; free plasma concentration was calculated by multiplying total plasma concentration by the previously determined percentage of Compound 1 unbound to plasma protein.

[6] = system: collagen-induced arthritis (CIA) model; test: Collagen-induced arthritis (CIA) model; assay type: in vivo; details: mouse CIA, daily oral 30 mg/kg
Excerpt: Immunization with Collagen Type II (CII) in an adjuvant induces polyarthritis in rodents. This model known as the collagen-induced arthritis (CIA) model, is widely used for studying arthritis and resemble many aspect of the human disease. High level of anti-collagen II correlates with disease severity. In FIG. 1 CIA was induced by immunization with type II collagen in complete Freund's adjuvant on Day 0. A second boost was given on Day 21. Treatment with vehicle or therapeutic agents was initiated on Day 18 and continued to day 35. At the end of the study on Day 36, serum was collected. […] Significance of clinical arthritis score (A) was determined from the area under the curve (AUC) of mean paw scores calculated for individual mice. (C) Serum levels of anti-type II collagen IgG. Statistical significance was determined between vehicle control and treated groups with one-way Kruskal-Wallis ANOVA and Dunn's multiple comparisons test.

[7] = system: B cells compartment; test: Dosing effect on B cells compartment (B cells, plasma cells); assay type: in vivo, C57BL/6 mice; details: 30 mg/kg in water bottle
Description: A separate group of mice received vehicle formulation as control. Blood spleens and femurs for each treated mice were harvested at the end of the study. Peritoneal lavage was also performed with PBS to harvest peritoneal resident lymphocyte.
It is plausible that Compound 1 affects one or multiple proteins that are involved either in generation or the survival of plasma cells and that this effect is independent from its ability to degrade the BTK protein. Left, representative dot plots showing the gating strategy to identify plasma cells in bone marrow. Right histograms showing cumulative data from multiple treated animals.
as §1

[8] = H&E-stained kidney tissue, end of study

ability to cross the blood brain barrier [5]: crosses the blood brain barrier
Structure (SMILES): CN1CCN([C@@H]2CCCN(c3cnc(C(N)=O)c(Nc4ccc(C5CCN(CC6CCN(c7ccc(C(=O)N[C@H]8CCC(=O)NC8=O)nc7)CC6)CC5)cc4)n3)C2)C1=O [Compound 1]
disease (clinical arthritis score) ([1]; 10 mg/kg or 30 mg/kg once daily oral, started after arthritis was established, to Arthritis Day 14): strongly suppressed disease
control of disease compared with comparators ([1]; Compound 1 and ibrutinib 30 mg/kg, Enbrel 10 mg/kg i.p., tofacitinib 30 mg/kg twice daily, rilzabrutinib): more potently than anti-TNF-alpha blocking antibody (Enbrel) or BTK inhibitors rilzabrutinib and tofacitinib
mean clinical score ([2]; EAE, 30 mg/kg, compared with ibrutinib 30 mg/kg): superior to Ibrutinib; also recorded: lower mean clinical score than ibrutinib
EAE clinical scores ([2]; prophylactic daily oral treatment, Day −1 through Day 22, dose dependence): dose-dependent reduction of EAE clinical scores
generation of plasma cells upon immunization ([3]; NP-KLH immunization, oral once a day Day 1 to Day 7): significantly decrease
germinal center formation ([3]; following NP-KLH immunization): do not affect
number of B cells in spleen ([3]; following NP-KLH immunization): do not affect
number of IgG1+ plasma cells in spleen ([3]; immunized mice): significantly decrease
number of total Plasma cells in spleen ([3]; immunized mice): significantly decrease
protein urine score, statistically significant reduction vs vehicle ([4]; 30 mg/kg, Urine Protein Score AUC): statistically significant reduction
anti-ds DNA autoantibody in end of study serum ([4]; 30 mg/kg, vs vehicle): statistically significant reduction
overall summed histology score [4, 8]: more effective than Ibrutinib
size of the glomeruli [4, 8]: more effective than Ibrutinib
kidney disease ([4]; MRL/lpr model): significantly ameliorated kidney disease
urine protein score ([4]; daily oral, starting at 10 weeks of age, dose dependence): dose-dependent reduction of urine protein score
exposure in cerebral spinal fluid (CSF) ([5]; 4, 8, 24 hours): demonstrates exposure in cerebral spinal fluid (CSF)
body weight [6]: minimal effect on body weight; also recorded: minimal body weight loss
mean arthritis score ([6]; Day 18 to day 35): significant benefit; also recorded: lower mean arthritis score than ibrutinib; also recorded: lower mean arthritis score than standard of care agents
plasma cells number in bone marrow [7]: significantly reduce
B cells percentage ([7]; blood, spleens, peritoneum and bone marrow): does not significantly affect
